Measured values from the supplement of paper PMC10307832.

Assays:
Experiment in all cases: relative viability (nuclei count vs DMSO), 5 days (fraction); higher = more cells survive
Everolimus + Palbociclib = compound: CO[C@H]1C[C@@H]2CC[C@@H](C)[C@@](O)(O2)C(=O)C(=O)N2CCCC[C@H]2C(=O)O[C@H]([C@H](C)C[C@@H]2CC[C@@H](OCCO)[C@H](OC)C2)CC(=O)[C@H](C)/C=C(\C)[C@@H](O)[C@@H](OC)C(=O)[C@H](C)C[C@H](C)/C=C/C=C/C=C/1C [Everolimus] + CC(=O)c1c(C)c2cnc(Nc3ccc(N4CCNCC4)cn3)nc2n(C2CCCC2)c1=O [Palbociclib] (partner 0.5 µM)
How it was run: (§1)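 Each reported value is a median over duplicate plates. It expresses relative viability: treated-well nuclei count divided by vehicle-well nuclei count. Lung cancer cell lines in 1536-well plates were dosed by pin tool a day after seeding, alone with one drug or with a fixed anchor-drug dose plus five library-drug doses (not always all listed) in √10 steps, and nuclei were counted after 5 days.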

Everolimus + Bortezomib = compound: CO[C@H]1C[C@@H]2CC[C@@H](C)[C@@](O)(O2)C(=O)C(=O)N2CCCC[C@H]2C(=O)O[C@H]([C@H](C)C[C@@H]2CC[C@@H](OCCO)[C@H](OC)C2)CC(=O)[C@H](C)/C=C(\C)[C@@H](O)[C@@H](OC)C(=O)[C@H](C)C[C@H](C)/C=C/C=C/C=C/1C [Everolimus] + CC(C)C[C@H](NC(=O)[C@H](Cc1ccccc1)NC(=O)c1cnccn1)B(O)O [Bortezomib] (partner 0.002 µM)
How it was run: as §1

Everolimus + Foretinib = compound: CO[C@H]1C[C@@H]2CC[C@@H](C)[C@@](O)(O2)C(=O)C(=O)N2CCCC[C@H]2C(=O)O[C@H]([C@H](C)C[C@@H]2CC[C@@H](OCCO)[C@H](OC)C2)CC(=O)[C@H](C)/C=C(\C)[C@@H](O)[C@@H](OC)C(=O)[C@H](C)C[C@H](C)/C=C/C=C/C=C/1C [Everolimus] + COc1cc2c(Oc3ccc(NC(=O)C4(C(=O)Nc5ccc(F)cc5)CC4)cc3F)ccnc2cc1OCCCN1CCOCC1 [Foretinib] (partner 0.25 µM)
How it was run: as §1

Everolimus + Pictilisib = compound: CO[C@H]1C[C@@H]2CC[C@@H](C)[C@@](O)(O2)C(=O)C(=O)N2CCCC[C@H]2C(=O)O[C@H]([C@H](C)C[C@@H]2CC[C@@H](OCCO)[C@H](OC)C2)CC(=O)[C@H](C)/C=C(\C)[C@@H](O)[C@@H](OC)C(=O)[C@H](C)C[C@H](C)/C=C/C=C/C=C/1C [Everolimus] + CS(=O)(=O)N1CCN(Cc2cc3nc(-c4cccc5[nH]ncc45)nc(N4CCOCC4)c3s2)CC1 [Pictilisib] (partner 1 µM)
How it was run: as §1

Cell Line	relative viability (Everolimus + Palbociclib; first compound 0.01 µM)	relative viability (Everolimus + Palbociclib; first compound 0.03162 µM)	relative viability (Everolimus + Palbociclib; first compound 0.1 µM)	relative viability (Everolimus + Palbociclib; first compound 0.3162 µM)	relative viability (Everolimus + Palbociclib; first compound 1 µM)	relative viability (Everolimus + Bortezomib; first compound 0.01 µM)	relative viability (Everolimus + Bortezomib; first compound 0.03162 µM)	relative viability (Everolimus + Bortezomib; first compound 0.1 µM)	relative viability (Everolimus + Bortezomib; first compound 0.3162 µM)	relative viability (Everolimus + Bortezomib; first compound 1 µM)	relative viability (Everolimus + Foretinib; first compound 0.01 µM)	relative viability (Everolimus + Foretinib; first compound 0.03162 µM)	relative viability (Everolimus + Foretinib; first compound 0.1 µM)	relative viability (Everolimus + Foretinib; first compound 0.3162 µM)	relative viability (Everolimus + Foretinib; first compound 1 µM)	relative viability (Everolimus + Pictilisib; first compound 0.01 µM)	relative viability (Everolimus + Pictilisib; first compound 0.03162 µM)	relative viability (Everolimus + Pictilisib; first compound 0.1 µM)	relative viability (Everolimus + Pictilisib; first compound 0.3162 µM)	relative viability (Everolimus + Pictilisib; first compound 1 µM)
201T	0.322	0.306	0.274	0.306	0.231	1.01	1.01	0.956	0.927	0.953	0.996	0.913	0.895	0.795	0.865	0.59	0.604	0.528	0.568	0.645
A549											0.688	0.421	0.306	0.393	0.435	0.16	0.178	0.166	0.182	0.192
A-427	0.474	0.546	0.445	0.48	0.557	0.783	0.891	0.778	0.742	0.768	0.742	0.624	0.639	0.684	0.757	0.488	0.524	0.445	0.491	0.542
ABC-1	0.468		0.43		0.598	0.272	0.3	0.304	0.285	0.293	0.82	0.826	0.645	0.699	0.739	0.389	0.371	0.413	0.542	0.557
BEN	0.442	0.421	0.443	0.438	0.463	0.326	0.367	0.299	0.333	0.328	0.336	0.268	0.277	0.323	0.35	0.312	0.281	0.254	0.295	0.336
CAL-12T	0.461	0.236	0.152	0.217	0.388	0.662	0.732	0.557	0.597	0.713	0.628	0.686	0.651	0.792	0.821	0.324	0.26	0.377	0.287	0.304
COR-L23	0.224	0.27	0.233	0.271	0.218	0.788	0.963	0.635	0.683	0.864	0.942	0.993	0.871	0.97	0.959	0.354	0.409	0.378	0.366	0.483
COR-L 105	0.465	0.368	0.365	0.344	0.343	0.593	0.476	0.445	0.565	0.584	0.775	0.71	0.787	0.709	0.952	0.331	0.376	0.295	0.368	0.313
Calu-6						0.91	0.9	0.901	0.937	0.78	0.845	0.785	0.811	0.77	0.742	0.573	0.566	0.559	0.527	0.592
ChaGo-K-1	0.798	0.806	0.802	0.768	0.914	0.992	0.909	0.993	0.955	1.01	0.903	0.85	0.884	0.761	0.805	0.653	0.382	0.634	0.494	0.666
EBC-1						0.344	0.406	0.314	0.424	0.255	0.109	0.108	0.103	0.133	0.0957	0.199	0.193	0.221	0.227	0.222
EKVX		0.217	0.188	0.2	0.237	0.636	0.721	0.631	0.558	0.6	0.582	0.808	0.428	0.444	0.555	0.251	0.24	0.234	0.245	0.22
EMC-BAC-2	0.414	0.376	0.346	0.357	0.324	0.731	0.69	0.645	0.588	0.616	0.66	0.564	0.576	0.643	0.521	0.368	0.349	0.298	0.42	0.39
EPLC-272H	0.307	0.323	0.284	0.286	0.259	0.573	0.589	0.517	0.638	0.558	0.451	0.414	0.443	0.417	0.489	0.274	0.295	0.188	0.211	0.262
